Type in all cases: cell-based, human
Experiment [1] has as its system MCF-7 cells infected with cDNA inserts B4, B6, D10, E5. Description: Colony forming assay after 4OHTAM treatment, cDNA (RIG)-containing populations. As to the method:
(§1) Colony Forming Assay: five hundred cells were plated per 60 mm plate and allowed to recover overnight. […] Treatment continued for 14 days with media replacement every two days; then cells were allowed to recover for two weeks, fixed with alcohol and stained with crystal violet (2% w/v). Colonies (over 150 cells per group) were counted. Experiments were done in triplicate.
(§2) Resistance was determined by colony-forming assay as described in Materials and Methods: plates were stained, and colonies were counted (FIG. 2B); results of the experiment were plotted (FIG. 2C). […] In heterogeneous populations the level of resistance is lower than in single-cell clones (presence of cells without inserts, different levels of expression, etc), so resistance induced by selected cDNAs in individual cells can be much higher. As selected cDNAs induced resistance to 4OHTAM, they were considered to be resistance-inducing genes (RIGs).

For experiment [2], the system named is GFP-expressing MCF-7 control cells. The experiment can be described thus: Colony forming assay after 4OHTAM treatment, GFP control. Particulars: 7.5 µM of 4OHTAM, 14 days treatment. The protocol:
as §1, §2

Experiment [3] has as its system MCF-7 cells. The experiment can be described thus: Cell growth with 4OHTAM. The arrangement: cell growth: dose or concentration left out as unconfirmed. The protocol: Cells: MCF-7 (ATCC: HTB-22) cells were grown in Dulbecco's Modified Eagle's medium, 2 mM glutamine, 0.1 mM non-essential amino acids, 10 units/ml of penicillin, 10 μg/ml of streptomycin (all—Invitrogen, Calif.), supplemented with 10% fetal bovine serum (HyClone, Utah), 6 μg/ml of insulin (Sigma, Mo.), 30 μg/ml of fungin, and 10 μg/ml of plasmocin (both—InvivoGen, Calif.). 4-Hydroxytamoxifen (Sigma, Mo.) was used as 10 mM stock solution in ethanol and stored at −20° C.
To gain a better understanding of changes induced by the RIGs, cell growth of RIGs-expressing populations was evaluated with and without 4OHTAM (FIG. 3). In drug-free media the proliferation rate of the B4 RIG-expressing cells was at least equal to parental MCF-7 cells or GFP-expressing control, while for B6, D10 and E5 the proliferation rate was higher (FIG. 3A). […] It is contemplated that cessation of growth for parental and control cells reflects terminal damage and initial stages of cellular demise, whereas for RIG E5-expressing cells cessation of growth is a protective response to drug exposure.

Experiment [4] has as its system MCF-7 cells. The experiment can be described thus: Apoptosis check: propidium iodide DNA content (FACS) and DNA ladder. As to the method: Cell staining. Propidium iodide (DNA content): cells were permeabilized with cold EtOH, incubated with propidium iodide/RNase staining buffer (BD Bioscience, Calif.) for 15 min at room temperature, and analyzed by flow cytometry.
(§3) Flow Cytometry was performed using a Beckman Coulter Epics XL-MCL (Beckman, Fla.) with System II v. 3.0 software and CYAN (DakoCytomation, Colo.) and Summit v. 3.3 software.

The subject of experiment [5] is B6-containing MCF-7 cells. Description: Mitochondrial mass, MitoFluor 589 staining, flow cytometry. The conditions noted are these: 4OHTAM for 72 hr. As to the method:
MitoTracker Red CMXRos (mitochondrial membrane potential) and MitoFluor 589 (mitochondrial mass detection): both dyes were obtained from Molecular Probes, Calif., and added to cells (250 nM final concentration) for 25 min at 37° C. in the CO2 incubator. Cells were then trypsinized and analyzed by flow cytometry or by fluorescent microscope.
as §3
The fate of mitochondria was also examined in experiments assessing mitochondrial activity (FIG. 7C). […] The intracellular content of this organelle on a per cell basis remains fairly constant with only insignificant fluctuations (FIG. 7B), indicating a tight control of the number of mitochondria per cell. 1S A population of B6-containing cells treated with 4OHTAM for 72 hr contains approximately 30% of cells with reduced mitochondrial content (67% have normal mitochondrial content), which is close to the distribution of parental MCF-7 cells treated for 48 hr (FIG. 7B). At the same two timepoints mitochondrial activity distributions are vastly different: a separate low-activity peak for MCF-7 and a barely noticeable asymmetry (“shoulder”) for B6-cells (FIG. 7C). The present invention is not limited to a particular mechanism. […]
For orientation: Flow cytometry measures light scatter and fluorescence of single cells or particles in a stream.

Some results are limits rather than exact numbers.

For the substance 4-Hydroxytamoxifen [4OHTAM], in experiment [1] (7.5 μM 4OHTAM, colony-forming assay), the “resistance of cDNA-expressing cells relative to control (EGFP-only) cells” value was “five-six times more resistant”. Further, in experiment [1] (cDNA-containing populations, 7.5 µM of 4OHTAM, 14 days treatment), the “survival of populations, colony formation assay” value is roughly 65%. Besides, the “survival of GFP-expressing control, colony formation assay” value in experiment [2] is reported as greater than 10%. The cell proliferation entry in the experiment with MCF-7 cells [3] (10 mM 4OHTAM, MCF-7 cells) is “blocked”. For the same substance, the cell growth result in the experiment with MCF-7 cells [3] (RIGs-containing and parental cells) is given as “inhibited”. Moreover, in the experiment with MCF-7 cells [4] (genomic DNA of 4OHTAM-treated cells), the “DNA fragmentation pattern (DNA ladder)” value is listed as “no characteristic DNA fragmentation pattern (DNA ladder) was detected”. The “apoptotic sub-G1 peak in FACS profiles” value with MCF-7 cells [4] (up to 20 μM 4OHTAM) is given as “No evidence was found of a characteristic sub-G1 peak”. Moreover, in experiment [5], the “cells with normal mitochondrial content” value amounted to 67% and the “cells with reduced mitochondrial content” value is recorded as “approximately 30%”.
